Structures can show the parent of a compound that is named as a salt.
Assays:
[1] = test system: N87 (gastric cancer); experiment: Cell growth determination test of combined use, Combination Index, N87; format: cell-based, human; settings: combined use with compound A
Description: (§1) The cell density of the cell suspension was measured by cell counter Sysmex CDA500, and the cell density was adjusted to 4×10^4 cell/mL using the aforementioned medium, which was dispensed to each well of a 96 well multi-well culture plate (Nunc) by 0.15 mL and cultured overnight at 37° C., 5% CO2. […] After culturing at 37° C., 5% CO2 for 5 days, the cells of each well were fixed, stained and subjected to colorimetry. The effect of the combined use was determined by the method of Chou T C, Talalay P Adv.
(§2) The effect of combined use was determined by the method of Chou T C, Talalay P Adv.

[2] = test system: OE19 (esophageal cancer); experiment: Cell growth determination test of combined use, Combination Index, OE19; format: cell-based, human; settings: combined use with compound A
Description: as §1, §2

[3] = test system: Human breast cancer cell line BT-474; experiment: Cell growth test of combined use, Combination Index by the method of Chou and Talalay, BT-474; format: cell-based; settings: for Combination Index at the time of inhibition of cell growth by 50%: combined use with compound A, BT-474
Description: as §1, §2

[4] = test system: Human breast cancer cell line BT-474 (HER2 high expressing); experiment: Tumor growth of BT-474 transplanted subcutaneously in nude mouse, combined use; format: in vivo; settings: compound A 10 mg/mL, 10 mL/kg orally twice a day, 14 days, 10 mL/kg intraperitoneally twice a week
Description: (§3) Human breast cancer cell line BT-474 (ATCC (American Type Culture Collection) catalog No. HTB-20, Lasfargues E Y, In Vitro 15:723-729 (1979)), which is a passage cultured HER2 high expressing cell, was treated with trypsin and suspended in RPMI-1640 medium (GibcoInvitrogen) containing 10% bovine fetus serum (GibcoInvitrogen).
as §3

[5] = test system: HER2 high expressing clinical gastric cancer cell line (4-1ST); experiment: Tumor growth of 4-1ST tumor pieces transplanted subcutaneously in nude mouse, combined use; format: in vivo
Description: A tumor mass of 4-1ST (obtained from Central Institute for Experimental Animals), which was HER2 high expressing clinical gastric cancer cell line transplanted and passaged in vivo in nude mouse, was recovered from nude mouse, aseptically cut into 2 to 3 mm square pieces. The above-mentioned tumor piece was fixed on a trocar transplantation tool and transplanted subcutaneously into the abdomen of nude mouse. As a nude mouse for transplantation, BALB/cAJc l-nu/nu, female, 5-week-old mice were purchased from CLEA Japan, Inc. After 1 week of acclimation on receipt of the mice, the tumor piece was transplanted subcutaneously into the abdomen of 6-week-old mouse. The tumor volume was measured over time from 2 weeks after the transplantation and the mouse with a tumor volume of from 200 to 300 mm^3 was used for the test. Compound A was adjusted to a concentration of 10 mg/mL with 0.5% aqueous methylcellulose solution, and orally administered to mouse at a liquid amount of the above-mentioned compound A suspension of 10 mL/kg body weight. Compound A was administered twice a day in the morning and in the afternoon (administration interval was 7 hr or more) for 14 consecutive days. As for trastuzumab (Herceptin (trademark) (Genentech, Inc.) catalog No. NDC 50242-134-68), undiluted solution (21 mg/mL) was diluted to 1 mg/mL with saline, and intraperitoneally administered at a liquid amount of 10 mL/kg body weight. Trastuzumab was administered twice a week, totaling 4 times. The tumor volume was measured every 2 or 3 days, and the final tumor volume was measured on the next day of the completion of the 14 day administration and the effect of combined use was determined (FIG. 3). […] As for cetuximab (Erbitux (trademark)), undiluted solution (2 mg/mL) was intraperitoneally administered at a liquid amount of 10 mL/kg body weight. […] The tumor volume was measured every 2 or 3 days, and the final tumor volume was measured on the next day of the completion of the 14 day administration and the effect of combined use was determined (FIG. 4).

[6] = test system: Human breast cancer cell line BT-474; experiment: Cell growth inhibitory assay, SRB staining method, BT-474; format: cell-based; settings: in vitro; serially diluted; 5 days; BT-474 (FIG. 7)
Description: (§4) Human breast cancer cell line BT-474 was treated with trypsin and suspended in RPMI 1640 medium (Invitrogen) containing 10% bovine fetus serum (Invitrogen). BT-474 cell was plated on a 96 well plate at 6000 cells/100 μL/well. The next day, fulvestrant alone, compound A alone or a mixture of fulvestrant and compound A was serially diluted and added. After addition of the compound, the mixture was stood in a CO2 incubator for 5 days. 50 μL of 25% glutaraldehyde solution (Wako) was added to 200 μL of medium and the mixture was left standing at room temperature for 15 min. The plate was washed with PBS once, 200 μL of PBS was added, 25 μL of 50% trichloroacetic acid was added, and the mixture was left standing at 4° C. for 1 hr or longer. The plate was washed 5 times with tap water, redundant water was removed by slamming the plate against Kimtowel. 50 μL of 0.4% (w/v) Sulforhodamine B (SRB, Sigma)-containing 1% (v/v) acetic acid solution was added to each well and, 15 min later, the plate was washed 3 times with 1% acetic acid solution (v/v). The plate was thoroughly dried, 10 mM Tris solution was added, and the mixture was stirred well with a plate shaker, and the absorbance at 550 nm was measured (Bio-Rad, Benchmark Plus). In calculation, a control free of a drug was 100% (FIG. 7).

[7] = test system: Human breast cancer cell line MCF-7; experiment: Cell growth inhibitory assay, SRB staining method, MCF-7; format: cell-based; settings: in vitro; serially diluted; 4 days; MCF-7 (FIG. 8)
Description: Human breast cancer cell line MCF-7 cell was plated on a 96 well plate at 3000 cells/100 μL/well. The next day, fulvestrant alone, compound A alone or a mixture of fulvestrant and compound A was serially diluted and added.
as §4, with “After” for “Human breast cancer cell line BT-474 was treated with trypsin and suspended in RPMI 1640 medium (Invitrogen) containing 10% bovine fetus serum (Invitrogen). BT-474 cell was plated on a 96 well plate at 6000 cells/100 μL/well. The next day, fulvestrant alone, compound A alone or a mixture of fulvestrant and compound A was serially diluted and added. After”, “for 4” for “for 5”, “(FIG. 8).” for “(FIG. 7).”

[8] = test system: HER family genes (EGFR, HER2, HER3, HER4) in MCF-7 cell; experiment: HER family gene expression (TaqMan PCR) in MCF-7; format: cell-based, human
Description: MCF-7 cell was plated on a 6 well plate at 8.6×10^4 cells/well. The next day, the cells were treated with compound A (1 μM), fulvestrant (1 μM) or compound A (1 μM)+fulvestrant (1 μM). After 120 hr, total RNA was extracted using an RNeasy mini kit (Qiagen). 1 μg of total RNA was subjected to a Reverse Transcriptase reaction using a high capacity cDNA archive kit (P/N 4322171, Applied Biosystems) to give cDNA. The obtained cDNA was diluted 50-fold with Nuclease Free water (Promega), and 5 μL thereof was used for PCR reaction. 2×TaqMan Universal PCR Master Mix (12.5 μL) and 20×Probe & Primer (TaqMan Gene Expression Assays, 1.25 μL) and Nuclease Free water (6.25 μL) were blended. PCR reaction and analysis were performed using GeneAmp 7700 (Applied Biosystems). The reaction conditions were 50° C.×2 min, 95° C.×10 min, followed by 95° C.×15 sec, 60° C.×1 min, which cycle was repeated 40 times. For data analysis, calculation was made with GAPDH as an internal control and according to ? Ct method

[9] = test system: HER2 high expressing cancer cells (BT-474, N87, Calu3, OE19); experiment: Cell growth determination test of combined use, summary over the four cell lines; format: cell-based, human; settings: in vitro; summary of Table 1
Description: (§5) Human breast cancer cell line BT-474 (ATCC (American Type Culture Collection) catalog No. HTB-20, Lasfargues E Y, In Vitro 15:723-729 (1979)), which is a passage cultured HER2 high expressing cell, was treated with trypsin and suspended in RPMI-1640 medium (GibcoInvitrogen) containing 10% bovine fetus serum (GibcoInvitrogen). The cell density of the cell suspension was measured by cell counter Sysmex CDA500, and the cell density was adjusted to 4×10^4 cell/mL using the aforementioned medium, which was dispensed to each well of a 96 well multi-well culture plate (Nunc) by 0.15 mL and cultured overnight at 37° C., 5% CO2. Thereto was added a medium containing compound A 40-200 nmol/L at a given concentration, a medium containing trastuzumab (Herceptin (trademark) (Genentech, Inc.) catalog No. NDC 50242-134-68, 79-400 ng/mL) at a given concentration, or a medium containing compound A 40-200 nmol/L and trastuzumab 79-400 ng/mL at a given concentration. […] The effect of the combined use was determined by the method of Chou T C, Talalay P Adv. […]
(§6) HER2 high expressing human cancer cell lines, BT-474 (breast cancer), N87 (gastric cancer), Calu3 (lung cancer) and OE19 (esophageal cancer), were purchased from ATCC and used for the experiments. […] The effect of combined use was determined by the method of Chou T C, Talalay P Adv.

[10] = test system: Calu3 (lung cancer); experiment: Cell growth determination test of combined use, Combination Index, Calu3; format: cell-based, human; settings: combined use with compound A; Calu-3
Description: as §5, §6

## O=c1[nH]cc(F)c(=O)[nH]1 [Compound 5FU, 5FU]
[1]
  Combination Index at the time of inhibition of cell growth by 50%: 0.95
[2]
  Combination Index at the time of inhibition of cell growth by 50%: 1.43

## CC(C)(O)CC(=O)NCCn1ccc2ncnc(Nc3ccc(Oc4cccc(C(F)(F)F)c4)c(Cl)c3)c21 [Compound A, N-{2-[4-({3-chloro-4-[3-(trifluoromethyl)phenoxy]phenyl}amino)-5H-pyrrolo[3,2-d]pyrimidin-5-yl]ethyl}-3-hydroxy-3-methylbutanamide]
[3]; in vitro, compound A 40-200 nmol/L + trastuzumab 79-400 ng/mL, 5 days, Combination Index vs Fraction affected (FIG. 1)
  Effect of combined use of compound A and trastuzumab on cell growth: synergistic effect
[4]; paclitaxel 3 mg/mL, 4 times (FIG. 6)
  Effect of combined use of compound A and paclitaxel on tumor volume, compared to each agent alone: stronger action
[4]; trastuzumab 1 mg/mL, 4 times, two-way analysis of variance (FIG. 2)
  Effect of combined use of compound A and trastuzumab on tumor volume: synergistic effect
[5]; compound A 10 mg/mL and erlotinib 2 mg/mL, each 10 mL/kg orally twice a day, 14 days (FIG. 5)
  Effect of combined use of compound A and erlotinib on tumor volume: synergistic effect
[5]; compound A 10 mg/mL, 10 mL/kg orally twice a day, 14 days, cetuximab 2 mg/mL, 10 mL/kg intraperitoneally twice a week, 4 times (FIG. 4)
  Effect of combined use of compound A and cetuximab on tumor volume: synergistic effect
[5]; compound A 10 mg/mL, 10 mL/kg orally twice a day, 14 days, trastuzumab 1 mg/mL, 10 mL/kg intraperitoneally twice a week, 4 times (FIG. 3)
  Effect of combined use of compound A and trastuzumab on tumor volume: synergistic effect
[6]
  Cell growth inhibition by combined use of compound A and fulvestrant, compared to each alone: stronger cell growth inhibitory action
[7]
  Cell growth inhibition by combined use of compound A and fulvestrant, compared to each alone: stronger cell growth inhibitory action
[8]; compound A 1 μM alone or + fulvestrant 1 μM, 120 hr (FIG. 9)
  Action on HER signal: HER signal blocking action
[9]
  Effect of combined use of compound A and chemotherapeutic agents on cell growth: additive effect

## CC(=O)O[C@@]12CO[C@@H]1C[C@H](O)[C@@]1(C)C(=O)[C@H](O)C3=C(C)[C@@H](OC(=O)[C@H](O)[C@@H](NC(=O)OC(C)(C)C)c4ccccc4)C[C@@](O)([C@@H](OC(=O)c4ccccc4)[C@H]21)C3(C)C [docetaxel]
[3]
  Combination Index at the time of inhibition of cell growth by 50%: 1.10
[1]
  Combination Index at the time of inhibition of cell growth by 50%: 0.57
[2]
  Combination Index at the time of inhibition of cell growth by 50%: 0.94

## COc1cccc2c1C(=O)c1c(O)c3c(c(O)c1C2=O)C[C@@](O)(C(=O)CO)C[C@@H]3O[C@H]1C[C@H](N)[C@H](O)[C@H](C)O1 [doxorubicin hydrochloride]
[3]
  Combination Index at the time of inhibition of cell growth by 50%: 1.65
[10]
  Combination Index at the time of inhibition of cell growth by 50%: 1.39
[2]
  Combination Index at the time of inhibition of cell growth by 50%: 0.96

## C[C@]12CC[C@@H]3c4ccc(O)cc4C[C@@H](CCCCCCCCC[S+]([O-])CCCC(F)(F)C(F)(F)F)[C@H]3[C@@H]1CC[C@@H]2O (stereo partly drawn) [fulvestrant]
[8]; 1 μM, 120 hr, GAPDH as internal control (FIG. 9)
  HER family gene expression (EGFR, HER2, HER3, HER4), control group = 1: increase

## CCc1c2c(nc3ccc(OC(=O)N4CCC(N5CCCCC5)CC4)cc13)-c1cc3c(c(=O)n1C2)COC(=O)[C@]3(O)CC [irinotecan hydrochloride]
[1]
  Combination Index at the time of inhibition of cell growth by 50%: 1.02
[2]
  Combination Index at the time of inhibition of cell growth by 50%: 0.83

— US20100008912A1, “COMBINATION DRUG” (TAKEDA PHARMACEUTICAL COMPANY LIMITED, priority 2006, published 2010)
